Data reported in patent US6529835B1, “High throughput methods, systems and apparatus for performing cell based screening assays” (Caliper Technologies Corp., priority 1998, dated 2003).

Experiments:
[1] = test system: P2Y receptor on THP-1 cells; test: Dual label cell function assay, calcium response of THP-1 cells to UTP (Fluo-3 / Syto-17, on-chip); assay type: cell-based
Procedure: (§1) Cell Culture—Cells (CHO or THP-1) were obtained from the ATCC. THP-1 cells were cultured in RPMI 1640 media containing 10% fetal bovine serum (FBS), sodium pyruvate (1 mM), L-glutamine (2 mM), Penicillin-G/Streptomycin (100 u/ml, 100 μ/ml), beta-mercaptoethanol (50 μM), HEPES buffer, pH 7.4 (10 mM). CHO cells were cultured in Ham's F12 media containing 10% FBS, L-glutamine (2 mM), and Penicillin-G/Streptomycin (100 u/ml/100 μg/ml). The cells were maintained by splitting every 3-4 days.
(§2) Dye Loading of Cells—The cells were loaded with Fluo-3-AM dye (Molecular Probes) using a 4 μM solution of the dye in Hank's Balanced Salt Solution (HBSS) containing calcium and magnesium but lacking phenol red. Added to the HBSS were 1% FBS, 2.5 mM probenecid, 30 mM HEPES, pH 7.0, and 0.05% pluronic acid. The cells were incubated in the dye containing solution at approximately, 5-9×10^6 cells/5 ml for 50 minutes in a CO2 incubator at 37° C. […]
(§3) The fluorescence of the cells was measured using two PMT's on a Nikon inverted microscope and fluorescein/texas red filter sets (Fluo-3: Ex. max=506, Em. max=526 & Syto-17: Ex. max=621, Em. max=634 nm) for two color analysis. Using the combination of Fluo-3 and Syto-17 dyes, there was no interference by fluorescence quenching of one dye's emission by the other dye. […] Syto-17 was therefore an indicator of cell density in the reading area. […]

[2] = test system: CHO cells; test: Dual label cell function assay, intracellular calcium in CHO cells (Fluo-3 / Syto-17, on-chip); assay type: cell-based; conditions: ionomycin 0, 1 μM, 3 μM, 10 μM and 30 μM, FIGS. 11A-11F
Procedure: as §1, §2, §3

SMILES: O=c1ccn([C@@H]2O[C@H](COP(=O)(O)OP(=O)(O)OP(=O)(O)O)[C@@H](O)[C@H]2O)c(=O)[nH]1 [UTP]
- time to peak of calcium response after sample introduction ([1]; 10 μM UTP, FIG. 15): ≤ 5 s
- ratio of the Fluo-3 and Syto-17 fluorescence (the slope determined by linear regression) ([1]; 30 μM UTP versus no UTP, FIG. 13): changes with treatment with UTP

SMILES: C[C@H](CCC(=O)O)C[C@H](C)C[C@H](C)C(=O)/C=C(\O)[C@H](C)C[C@H](C)C/C=C/[C@@H](C)[C@@H](O)[C@@H](C)[C@@H](O)C[C@@H]1CC[C@@](C)([C@H]2CC[C@@](C)([C@@H](C)O)O2)O1 [ionomycin]
- slope of the best fit line for the scatter plots (ratio of calcium modulated fluorescence to cell number; measure of intracellular calcium concentration) [2]: increases with increasing ionomycin concentration
